Like-named read-outs stand apart in the source and are kept apart here.
How the values were obtained:
[1] = system: cGAS/STING signal pathway; test: cGAS/STING pathway activation after LIRD (Western blot); assay type: in vivo, BALB/c mice; conditions: 2 mg/kg
Procedure: FIG. 8. Elevated protein levels of cGAS-STING pathway in BALB/c mice. The CGAS, STING and phosphorylated NF-κB (pp65). (FIGS. 8A-8C) Retinas were harvested and cGAS and STING protein levels were measured by Western blot analysis with β-actin as loading control and densitometry quantification. (FIGS. 8D-8E) Levels of phosphorylated NF-κB (p-NF-κB) were determined by Western blotting. Total NF-κB (p65) was used as an internal control and densitometry quantification. Each lane represents an individual mouse. (FIGS. 8F-8G) Photoreceptor cell apoptosis was evaluated by TUNEL on the retinal sections at the dose of 2 mg/kg in BALB/c mice and correlating quantitative analysis. Student's t-test was used (n=5, mean±SEM, *P<0.05, **<0.01).
To further evaluate the effect of RPE65-61 on retinal apoptosis, retinal sections from LIRD mice were used for Terminal deoxynucleotidyltransferase dUTP nick-end labeling (TUNEL) with the In Situ Cell Death Detection Kit (Millipore/sigma Cat #:11684795910). TUNEL-positive photoreceptor cells were quantified to evaluate the effects of RPE65-61 as described (Rajala, A. et al. 2018; Ma, H. et al. 2020).

[2] = Sequestration of all-trans-retinal (atRAL) in vitro; conditions: 100 μM compound, equimolar atRAL, 30 min
Procedure: Test compounds (100 μM) were incubated with equimolar amounts of all-trans-retinal for 30 min. The UV-vis spectra were collected and the concentration of all-trans-retinal was assessed based on the 370 nm absorbance. (FIG. 11A) Graph bars show mean atRAL levels normalized to DMSO; error bars show SD; one-way ANOVA with Holm-Sidak post-hoc test was used for statistical analysis; *P<0.05; ****P<0.0001.

[3] = target: T1, RPE65 (Bos taurus, UniProt Q28175); test: In vitro retinol isomerase (isomerohydrolase, IMH) assay with bovine RPE microsomes; assay type: biochemical
T1 construct: Bovine RPE microsomes were prepared as described previously; from tissue; host or cells: bovine retinal pigment epithelium (RPE) microsomes
T1 sequence (Q28175 whole entry): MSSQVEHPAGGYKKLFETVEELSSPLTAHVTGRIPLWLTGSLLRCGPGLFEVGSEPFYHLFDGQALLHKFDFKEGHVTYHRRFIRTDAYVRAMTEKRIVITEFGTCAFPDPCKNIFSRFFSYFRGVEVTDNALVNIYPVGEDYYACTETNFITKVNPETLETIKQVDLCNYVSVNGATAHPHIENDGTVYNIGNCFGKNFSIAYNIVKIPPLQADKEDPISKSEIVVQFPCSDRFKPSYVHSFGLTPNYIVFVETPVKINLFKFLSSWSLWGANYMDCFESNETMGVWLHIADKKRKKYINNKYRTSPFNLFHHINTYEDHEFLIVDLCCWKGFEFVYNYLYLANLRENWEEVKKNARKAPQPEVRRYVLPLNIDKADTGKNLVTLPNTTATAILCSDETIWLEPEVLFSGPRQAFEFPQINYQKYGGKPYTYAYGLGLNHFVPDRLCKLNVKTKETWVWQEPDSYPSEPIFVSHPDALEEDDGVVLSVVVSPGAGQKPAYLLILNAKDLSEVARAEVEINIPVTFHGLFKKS
Procedure: FIG. 2. Inhibition of the RPE65 isomerase activity by RPE65-61. Bovine RPE microsomes (20 μg) were incubated with 0.2 μM of all-trans-[3H]-retinol in the presence or absence of RPE65-61 for 1 h at 37° C. The generated retinoids were analyzed by HPLC coupled with flow scintillation analyzer. (FIG. 2A) HPLC elution profile without inhibitor; (FIG. 2B) with 375 nM of RPE65-61. Peak 1, retinyl esters; Peak 2, 11-cis-retinol; Peak 3 all-trans-retinol.
All-trans [11,12-^3H]-retinol (1 mCi/ml, 45.5 Ci/mmol, Perkin Elmer, Boston, MA) in N,N-dimethyl formamide (DMF) was used as the substrate for the isomerohydrolase assay. Bovine RPE microsomes were prepared as described previously. For each reaction, 25 μg microsomal proteins from the bovine RPE were added into 200 μl of reaction buffer (10 mM BTP, pH 8.0, 100 mM NaCl) containing 0.2 μM of all-trans retinol, 1% BSA and 25 μM of cellular retinaldehyde-binding protein (CRALBP). For the inhibition of isomerase activity, RPE65-61 dissolved in the DMF was added to the reaction prior to addition of all-trans retinol. The reaction was stopped and retinoids extracted with 300 μl of cold methanol and 300 μl of hexane and centrifuged at 10,000×g for 5 min. The upper layer was collected and the generated retinoids were analyzed by normal phase HPLC as described (Moiseyev, G. et al. 2003). […] The isomerohydrolase activity was calculated from the area of the 11-cis retinol peak using Radiomatic 610TR software (Perkin Elmer, Boston, MA) with synthetic 11-cis [^3H]-retinol as a standard. […] The retinoid profile after completion of the reaction was analyzed by HPLC where the peaks were identified by co-elution with retinoid standards. The RPE65 isomehydrolase activity was calculated based on the 11-cis retinol peak area as described (Moiseyev, G. et al. 2005; Nikolaeva, O. et al. 2009). […] The inhibition constant for RPE65-61 was calculated from the following equation: Ki=[I]/([…]) where [I] is concentration of inhibitor, Vm is maximal velocity in the absence of the inhibitor, and Vmi is maximal velocity in the presence of the inhibitor.

RPE65 inhibition, in words [3]: effectively inhibit
IC50 ([3]; bovine RPE microsomes, 0.2 μM all-trans-[3H]-retinol, read-out: apparent IC50, RPE65 isomerase activity): 80 nM
IC50 ([3]; read-out: IC50 in the primary IMH / RPE65 inhibition assay): 95 nM
Structure (SMILES): N=S(=O)(CCN)c1cccc(OCC2CCCCC2)c1 (racemic) [RPE65-61, (±)-(2-aminoethyl) (3-(cyclohexylmethoxy)phenyl) (imino)-λ^6-sulfanone]
activation of cGAS/STING signal pathway in RPE and photoreceptor cells [1]: protected RPE and photoreceptor cells from the activation of cGAS/STING signal pathway
atRAL reduction [2]: 80%

— patent publication US20240245647A1, “ISOMEROHYDROLASE INHIBITOR FOR TREATMENT OF ATROPHIC FORM OF AGE-RELATED MACULAR DEGENERATION AND STARGARDT DISEASE” (The Trustees of Columbia University in the City of New York, priority 2021, published 2024)
